The source of these data is US9107926B2, “Mutant selectivity and combinations of a phosphoinositide 3-kinase inhibitor compound and chemotherapeutic agents for the treatment of cancer” (Genentech, Inc., priority 2012, dated 2015).

The test system of one assay is SKOV3. Kind of assay: CellTiter-Glo cell proliferation assay. In kind it is cell-based. Conditions: Homo sapiens, SK-OV-3, Ovarian, Kinase-HET.1047H > R, HET.350D > N.
Another assay concerns EVSA-T. Kind of assay: CellTiter-Glo cell proliferation assay. In kind it is cell-based. Conditions: Homo sapiens, Breast, PTEN.
The subject of the next assay is MCF7-neo/HER2. Kind of assay: CellTiter-Glo cell proliferation assay. In kind it is cell-based. Particulars: Breast, Helical-HET.545E > K.
The test system of the next assay is A375. Kind of assay: CellTiter-Glo cell proliferation assay. In kind it is cell-based. Particulars: Homo sapiens, A-375, Melanoma, B-Raf.
A further assay has as its system H358. Kind of assay: CellTiter-Glo cell proliferation assay. In kind it is cell-based. Particulars: Homo sapiens, NCI-H358, Lung(NSCLC), K-RAS.
The next assay has as its system IPC298. Kind of assay: CellTiter-Glo cell proliferation assay. Particulars: Homo sapiens, IPC-298, Melanoma, NRAS Q61L. Type of assay: cell-based.
Assay [1] concerns SKOV3 ovarian tumor xenografts. Kind of assay: In vivo mouse tumor xenograft efficacy. Particulars: PO daily (QD), 21 day treatment period.
Protocol: Xenografts were initiated with cancer cells. […] Volume was calculated using the formula:
The target in a further assay is PI3K alpha E545K mutant (Homo sapiens, UniProt P42336, E545K). Particulars: relative to PI3K alpha.
PI3K alpha E545K mutant, sequence (P42336 whole entry E545K): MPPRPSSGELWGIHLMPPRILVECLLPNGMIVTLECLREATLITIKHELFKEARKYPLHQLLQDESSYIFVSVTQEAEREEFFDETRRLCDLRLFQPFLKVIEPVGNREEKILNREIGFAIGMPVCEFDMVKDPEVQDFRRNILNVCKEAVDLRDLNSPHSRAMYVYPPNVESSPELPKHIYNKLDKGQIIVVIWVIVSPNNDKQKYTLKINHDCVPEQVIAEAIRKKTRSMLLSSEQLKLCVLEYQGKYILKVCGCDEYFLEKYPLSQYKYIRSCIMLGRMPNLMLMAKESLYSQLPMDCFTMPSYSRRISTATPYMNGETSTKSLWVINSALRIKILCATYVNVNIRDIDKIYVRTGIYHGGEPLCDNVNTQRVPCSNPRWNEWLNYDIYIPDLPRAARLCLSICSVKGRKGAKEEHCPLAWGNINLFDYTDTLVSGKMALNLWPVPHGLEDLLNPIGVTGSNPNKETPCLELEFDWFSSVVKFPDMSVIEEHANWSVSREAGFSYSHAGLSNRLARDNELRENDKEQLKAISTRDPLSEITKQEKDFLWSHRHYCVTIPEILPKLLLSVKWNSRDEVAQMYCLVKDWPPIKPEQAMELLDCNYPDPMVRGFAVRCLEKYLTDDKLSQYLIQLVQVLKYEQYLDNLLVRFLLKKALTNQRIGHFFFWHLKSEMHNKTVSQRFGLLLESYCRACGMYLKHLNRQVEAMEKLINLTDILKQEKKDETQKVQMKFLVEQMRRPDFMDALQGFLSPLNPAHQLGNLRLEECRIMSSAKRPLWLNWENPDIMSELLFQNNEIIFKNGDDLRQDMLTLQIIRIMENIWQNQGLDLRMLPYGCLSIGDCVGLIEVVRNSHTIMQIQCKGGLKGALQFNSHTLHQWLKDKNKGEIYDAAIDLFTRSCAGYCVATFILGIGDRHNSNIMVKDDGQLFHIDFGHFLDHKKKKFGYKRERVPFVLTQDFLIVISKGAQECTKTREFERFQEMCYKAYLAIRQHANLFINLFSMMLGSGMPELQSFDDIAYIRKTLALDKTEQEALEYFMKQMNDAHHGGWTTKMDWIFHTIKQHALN
PI3K alpha E545K mutant, sequence (P27986 whole entry partner): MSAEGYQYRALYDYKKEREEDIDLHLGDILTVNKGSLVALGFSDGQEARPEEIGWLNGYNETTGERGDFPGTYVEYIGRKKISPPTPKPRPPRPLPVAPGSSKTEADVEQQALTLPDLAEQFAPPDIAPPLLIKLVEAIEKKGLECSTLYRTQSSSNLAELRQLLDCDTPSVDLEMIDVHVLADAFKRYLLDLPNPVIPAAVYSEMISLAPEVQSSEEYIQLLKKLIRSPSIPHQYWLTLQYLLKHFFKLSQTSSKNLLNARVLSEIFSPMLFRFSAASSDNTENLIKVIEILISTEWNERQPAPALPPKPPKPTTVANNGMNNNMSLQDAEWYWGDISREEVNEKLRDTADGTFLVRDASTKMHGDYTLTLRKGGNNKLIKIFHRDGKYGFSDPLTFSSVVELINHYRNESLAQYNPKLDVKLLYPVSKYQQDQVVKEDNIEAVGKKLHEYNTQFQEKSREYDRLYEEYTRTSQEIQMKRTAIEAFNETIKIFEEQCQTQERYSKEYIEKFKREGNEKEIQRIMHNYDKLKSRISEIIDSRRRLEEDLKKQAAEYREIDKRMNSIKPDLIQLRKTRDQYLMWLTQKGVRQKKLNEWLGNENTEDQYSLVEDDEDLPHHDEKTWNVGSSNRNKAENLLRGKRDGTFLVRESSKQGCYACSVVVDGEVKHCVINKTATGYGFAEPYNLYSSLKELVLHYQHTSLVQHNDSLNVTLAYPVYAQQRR

Protocol for MCF7-neo/HER2: Cell Culture Medium: RPMI or DMEM high glucose, 10% Fetal Bovine Serum, 2 mM L-Glutamine, P/S. Incubate O/N (overnight) at 37° C., 5% CO2.
Drug Addition to Cells, Cell Plate (1:10 dilution): Add 6 μl of media+compound directly to cells (54 μl of media on the cells already). Incubate 3 days at 37° C., 5% CO2 in an incubator that will not be opened often.
Day 5—Develop Plates, Thaw Cell Titer Glo Buffer at room temperature: Remove Cell Plates from 37° C. and equilibrate to room temperature for about 30 minutes. Add Cell Titer-Glo® Buffer to Cell Titer-Glo® Substrate (bottle to bottle). Add 30 μl Cell Titer-Glo® Reagent (Promega cat.#G7572) to each well of cells. Place on plate shaker for about 30 minutes. Read luminescence on Analyst HT Plate Reader (half second per well).
Protocol for PI3K alpha E545K mutant: After an incubation time of 30 minutes at room temperature, the reactions were stopped by the addition of GRP-1 and PIP3-TAMRA probe (Echelon-Inc., Salt Lake City, Utah.) 100 nM and 5 nM final concentrations respectively. Read with standard cut-off filters for the rhodamine fluorophore (λex=530 nm; λem=590 nm) in 384-well black low volume Proxiplates® (PerkinElmer, Wellesley, Mass.) Fluorescence polarization values were plotted as a function of the protein concentration. EC50 values were obtained by fitting the data to a four-parameter equation using KaleidaGraph® software (Synergy software, Reading, Pa.). This experiment also establishes the appropriate protein concentration to use in subsequent competition experiments with inhibitors.
After an incubation time of 30 minutes at room temperature, the reactions were stopped by the addition of GRP-1 and PIP3-TAMRA probe (Echelon-Inc., Salt Lake City, Utah.) 100 nM and 5 nM final concentrations respectively.
The compound was serially diluted in 100% DMSO. The kinase reaction was incubated for 1 h at room temperature, and the reaction was terminated by the addition of PBS. IC50 values were subsequently determined using sigmoidal dose-response curve fit (variable slope).

Take `Cc1nc(-c2cn3c(n2)-c2ccc(-c4cnn(C(C)(C)C(N)=O)c4)cc2OCC3)n(C(C)C)n1` [GDC-0032, 2-(4-(2-(1-isopropyl-3-methyl-1H-1,2,4-triazol-5-yl)-5,6-dihydrobenzo[f]imidazo[1,2-d][1,4]oxazepin-9-yl)-1H-pyrazol-1-yl)-2-methylpropanamide]: the concentration for a half-maximal effect (EC50) in the assay on SKOV3 worked out at 76 nM; with EVSA-T, 1120 nM; in the assay with MCF7-neo/HER2, 178 nM; in the assay on A375, 10000 nM; in the assay on H358, 220 nM; in the assay on IPC298, 10000 nM. The tumor volume change result in assay [1] is given as “dose-dependent decrease in tumor volume”. Besides, on PI3K alpha E545K mutant, the “PI3K alpha E545K mutant” value is reported as 0.4x.
